Article PMC3581696 (The Journal of General Physiology, 2013)

Experiments:
[1] = molecular target: T1, mEAG1 channel (Mus musculus, UniProt Q60603); experiment: Inside-out patch-clamp of wild-type mEAG1 channels expressed in Xenopus oocytes; type: cell-based; conditions: 50 µM
T1 sequence (Q60603 1-989): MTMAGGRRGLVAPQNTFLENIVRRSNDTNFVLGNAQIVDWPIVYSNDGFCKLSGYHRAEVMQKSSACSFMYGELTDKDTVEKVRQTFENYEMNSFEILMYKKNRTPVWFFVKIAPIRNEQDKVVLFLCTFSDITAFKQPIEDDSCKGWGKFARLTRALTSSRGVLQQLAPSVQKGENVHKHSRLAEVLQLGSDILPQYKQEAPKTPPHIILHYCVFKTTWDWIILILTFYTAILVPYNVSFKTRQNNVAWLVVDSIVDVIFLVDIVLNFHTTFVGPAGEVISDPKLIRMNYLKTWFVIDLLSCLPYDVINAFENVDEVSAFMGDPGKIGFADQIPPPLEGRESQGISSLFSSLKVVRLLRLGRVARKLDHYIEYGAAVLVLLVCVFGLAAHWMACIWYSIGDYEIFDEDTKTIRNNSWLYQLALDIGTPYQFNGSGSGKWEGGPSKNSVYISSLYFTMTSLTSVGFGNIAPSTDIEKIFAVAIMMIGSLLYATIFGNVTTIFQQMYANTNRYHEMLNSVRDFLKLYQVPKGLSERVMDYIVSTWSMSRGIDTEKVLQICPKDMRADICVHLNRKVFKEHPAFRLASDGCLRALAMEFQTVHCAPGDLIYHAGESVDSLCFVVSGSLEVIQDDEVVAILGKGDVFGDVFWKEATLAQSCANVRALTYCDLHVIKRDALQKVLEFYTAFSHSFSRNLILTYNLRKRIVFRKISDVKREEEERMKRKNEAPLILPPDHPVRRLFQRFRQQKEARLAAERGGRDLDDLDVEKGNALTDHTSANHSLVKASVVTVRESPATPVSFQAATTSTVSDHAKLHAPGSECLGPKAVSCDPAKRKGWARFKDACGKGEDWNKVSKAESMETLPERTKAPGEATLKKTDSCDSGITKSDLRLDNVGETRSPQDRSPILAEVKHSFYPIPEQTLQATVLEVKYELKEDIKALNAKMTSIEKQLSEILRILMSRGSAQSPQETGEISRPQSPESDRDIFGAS

[2] = Solubility limit in recording / aqueous solutions; type: physicochemical; conditions: aqueous solutions
[3] = molecular target: T2, purified C-linker/CNBHD of mEAG1 channels (Mus musculus, UniProt Q60603); experiment: Tryptophan-to-flavonoid FRET binding assay; conditions: 100 µM flavonoid; 4 µM protein
T2 sequence (Q60603 505-702): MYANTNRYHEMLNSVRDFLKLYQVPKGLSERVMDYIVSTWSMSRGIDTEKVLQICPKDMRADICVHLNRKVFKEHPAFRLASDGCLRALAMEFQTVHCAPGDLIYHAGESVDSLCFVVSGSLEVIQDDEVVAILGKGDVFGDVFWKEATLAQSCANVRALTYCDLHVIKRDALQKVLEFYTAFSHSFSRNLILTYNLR

effect on steady-state or kinetic properties of mEAG1 channel gating [1] | solubility [2] [µM] | decrease of peak fluorescence intensity of the C-linker/CNBHD at 341 nm [3] [%] | SMILES
did not alter | – | – | COc1ccc(-c2cc(=O)c3c(O)cc(O)cc3o2)cc1 [Acacetin, 5,7-dihydroxy-2-(4-methoxyphenyl)chromen-4-one]
did not alter | – | – | Oc1cc(O)c2c(c1)O[C@H](c1ccc(O)c(O)c1)[C@@H](O)C2 [Catechin, (2R,3S)-2-(3,4-dihydroxyphenyl)-3,4-dihydro-2H-chromene-3,5,7-triol]
– | ≤ 150 | 51 | O=c1c(O)c(-c2ccc(O)c(O)c2)oc2cc(O)cc(O)c12 [Quercetin, 2-(3,4-dihydroxyphenyl)-3,5,7-trihydroxy-4H-chromen-4-one]

SMILES | effect on steady-state or kinetic properties of mEAG1 channel gating [1] | solubility [2] [µM] | decrease of peak fluorescence intensity of the C-linker/CNBHD at 341 nm [3] [%]
C[C@]12CC[C@@H]3c4ccc(O)cc4CC[C@H]3[C@@H]1CC[C@@H]2O [Estradiol, (17β)-estra-1,3,5(10)-triene-3,17-diol] | did not shift the voltage dependence or slow the deactivation | – | –
